# Measured values taken from US12492173B2, “Herbicidal substituted N-tetrazolyl aryl carboxamides” (Bayer Aktiengesellschaft, priority 2019, dated 2025).
# Experiments:
# Format in all cases: in vivo
# Alopecurus myosuroides = assay: Post-emergence herbicidal action, ALOMY; set-up: key: % herbicidal action vs untreated; 100 = plants died, 0 = like control
# Procedure, shortened: (§1)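 Percent herbicidal effect was rated visually about 3 weeks after treatment, relative to untreated plants (0% = like control, 100% = dead). Compounds, formulated as WP or EC, went on as aqueous spray (600–800 l/ha, 0.2% wetting agent) to one-leaf-stage plants 2–3 weeks post-sowing in sandy loam.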
# Veronica persica = assay: Post-emergence herbicidal action, VERPE; set-up: key: % herbicidal action vs untreated; 100 = plants died, 0 = like control; details: for Herbicidal action against VERPE: comparative experiment
# Procedure, shortened: as §1
# Pharbitis purpurea = assay: Post-emergence herbicidal action, PHBPU
# Procedure, shortened: as §1
# Amaranthus retroflexus = assay: Post-emergence herbicidal action, AMARE; set-up: key: % herbicidal action vs untreated; 100 = plants died, 0 = like control; details: for Herbicidal action against AMARE: comparative experiment
# Procedure, shortened: as §1
# Viola tricolor = assay: Pre-emergence herbicidal action, VIOTR; set-up: key to Herbicidal action against VIOTR: % activity: 100 = plants have died, 0 = like control plants; details: for herbicidal activity VIOTR: scored visually after 3 weeks vs untreated controls (100% = plants have died)
# Procedure, shortened: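 Sown pots (sandy loam) sprayed pre-emergence → greenhouse → visual rating at 3 weeks; % activity vs untreated control, 100% = dead.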
# Abutilon theophrasti = assay: Post-emergence herbicidal action, ABUTH; set-up: key: % herbicidal action vs untreated; 100 = plants died, 0 = like control; details: for Herbicidal action against ABUTH: comparative experiment
# Procedure, shortened: as §1
# [1] = post-emergence, 20 g of a.i./ha
Compound,"herbicidal action ALOMY (Alopecurus myosuroides; post-emergence, dosage 80 g/ha) [%]","herbicidal action VERPE (Veronica persica; post-emergence, dosage 80 g/ha) [%]","herbicidal action PHBPU (Pharbitis purpurea; post-emergence, dosage 80 g/ha) [%]","herbicidal action AMARE (Amaranthus retroflexus; post-emergence, dosage 80 g/ha) [%]",herbicidal activity VIOTR (Viola tricolor; dosage 320 g/ha) [%],"herbicidal action ABUTH (Abutilon theophrasti; post-emergence, dosage 80 g/ha) [%]",herbicidal action ALOMY (Alopecurus myosuroides; Dosage 80 g/ha),herbicidal action VERPE (Veronica persica; Dosage 80 g/ha),herbicidal action PHBPU (Pharbitis purpurea; Dosage 80 g/ha),herbicidal action AMARE (Amaranthus retroflexus; Dosage 80 g/ha),herbicidal action ABUTH (Abutilon theophrasti; Dosage 80 g/ha),further results
CC[S+]([O-])Cc1c(C(F)(F)F)ccc(C(=O)Nc2nnnn2C)c1Br (racemic) [Example 1-384],90,100,90,90,100,100,–,–,–,–,–,"Herbicidal action against VERPE (Veronica persica; [1]): 100; Herbicidal action against AMARE (Amaranthus retroflexus; [1]): 90; Herbicidal action against VIOTR (Viola tricolor; comparative experiment, 80 g of a.i./ha): 100; Herbicidal action against ABUTH (Abutilon theophrasti; [1]): 90"
CSCc1c(C(F)(F)F)ccc(C(=O)Nc2nnnn2C)c1C [Example 1-83],80,100,100,100,100,90,–,–,–,–,–,–
CCS(=O)(=O)Cc1c(C(F)(F)F)ccc(C(=O)Nc2nnnn2C)c1C [Example 1-88],–,–,–,–,–,–,80,100,90,90,80,herbicidal action VIOTR (Viola tricolor; dosage 320 g/ha): 100%
CSc1c(C(=O)Nc2nnnn2C)ccc(C(F)(F)F)c1C[S+](C)[O-] (stereo not drawn) [Example 1-162],100,100,100,100,100,100,–,–,–,–,–,–
CSc1c(C(=O)Nc2nnnn2C)ccc(C(F)F)c1C[S+](C)[O-] (stereo not drawn) [Example 1-171],–,–,–,–,100,–,80,100,90,100,100,–
CCSCc1c(C(F)(F)F)ccc(C(=O)Nc2nnnn2C)c1Cl [Example 1-299],90,100,90,100,100,100,–,–,–,–,–,"Herbicidal action against ALOMY (Alopecurus myosuroides; comparative experiment, post-emergence, 5 g of a.i./ha): 70; Herbicidal action against VERPE (Veronica persica; post-emergence, 5 g of a.i./ha): 100"
Cn1nnnc1NC(=O)c1ccc(C(F)(F)F)c(CSC2CC2)c1Cl [Example 1-302],100,90,100,100,100,100,–,–,–,–,–,–
Cn1nnnc1NC(=O)c1ccc(C(F)(F)F)c(CS(=O)(=O)C2CC2)c1Cl [Example 1-304],100,100,100,100,100,100,–,–,–,–,–,–
COCCSCc1c(C(F)(F)F)ccc(C(=O)Nc2nnnn2C)c1Cl [Example 1-305],100,90,100,100,100,100,–,–,–,–,–,–
Cn1nnnc1NC(=O)c1ccc(C(F)(F)F)c(CSCC(F)(F)F)c1Cl [Example 1-311],–,–,–,–,100,–,100,100,100,100,100,–
Cn1nnnc1NC(=O)c1ccc(C(F)(F)F)c(CSCC2CC2)c1Cl [Example 1-314],100,100,100,100,100,100,–,–,–,–,–,–
Cn1nnnc1NC(=O)c1ccc(C(F)(F)F)c(CS(=O)(=O)CC2CC2)c1Cl [Example 1-316],–,–,–,–,100,–,90,100,90,100,100,–
CSCc1c(C(F)F)ccc(C(=O)Nc2nnnn2C)c1Cl [Example 1-320],–,–,–,–,100,–,100,100,90,100,100,"Herbicidal action against VERPE (Veronica persica; post-emergence, 5 g of a.i./ha): 100; Herbicidal action against AMARE (Amaranthus retroflexus; post-emergence, 5 g of a.i./ha): 100; Herbicidal action against ABUTH (Abutilon theophrasti; post-emergence, 5 g of a.i./ha): 100"
